Source: the supplement of paper PMC7840683
± gives the standard deviation of the averaged measurements.

Tested on: HepaRG
Experiment: LDH release cytotoxicity, % of total lysis control; higher = more cytotoxic
Settings: 48 h
Method in brief: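 Single-lot HepaRG cells in collagen I-coated 96-well plates were treated for 48 h in serum-free induction medium containing 0.5% DMSO with test chemicals in eight-point half-log series up to 100 µM. For total lysis, wells received 0.1% Triton X. LDH in 50 µL spent medium was assayed by resorufin fluorescence with CytoTox-ONE. Percent cytotoxicity was normalized to the on-plate vehicle and total lysis controls, with duplicates averaged.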

| Compound | LDH release cytotoxicity (0.03162 µM) | LDH release cytotoxicity (0.1 µM) | LDH release cytotoxicity (0.3162278 µM) | LDH release cytotoxicity (1 µM) | LDH release cytotoxicity (3.16228 µM) | LDH release cytotoxicity (10 µM) | LDH release cytotoxicity (31.6228 µM) | LDH release cytotoxicity (100 µM) | LDH release cytotoxicity (0.031623 µM) | LDH release cytotoxicity (0.316228 µM) | LDH release cytotoxicity (0.0320971 µM) | LDH release cytotoxicity (0.1015 µM) | LDH release cytotoxicity (0.320971 µM) | LDH release cytotoxicity (1.015 µM) | LDH release cytotoxicity (3.2097118 µM) | LDH release cytotoxicity (10.15 µM) | LDH release cytotoxicity (32.0971 µM) | LDH release cytotoxicity (101.5 µM) |
| --- | --- | --- | --- | --- | --- | --- | --- | --- | --- | --- | --- | --- | --- | --- | --- | --- | --- | --- |
| CCC(C)(CC)c1cc(NC(=O)c2c(OC)cccc2OC)on1 [Isoxaben] | -2.09 ± 1.5% | -2.04 ± 0.44% | -2.03 ± 0.16% | -2.59 ± 0.72% | -2.88 ± 0.57% | -1.64 ± 0.83% | -1.59 ± 0.14% | 11.4 ± 1.3% | – | – | – | – | – | – | – | – | – | – |
| CS(=O)(=O)c1cc(C(F)(F)F)ccc1C(=O)c1cnoc1C1CC1 [Isoxaflutole] | -0.368 ± 0.91% | -1.2 ± 0.74% | -2.1 ± 0.12% | -1.58 ± 1.2% | -0.928 ± 1.1% | -0.455 ± 0.32% | -0.687 ± 0.2% | 0.934 ± 0.86% | – | – | – | – | – | – | – | – | – | – |
| O=C1C2(Cl)C3(Cl)C4(Cl)C(Cl)(Cl)C5(Cl)C3(Cl)C1(Cl)C5(Cl)C24Cl (configuration not stated) [Kepone] | -0.309 ± 0.28% | 0.458 ± 0.64% | -0.526 ± 0.16% | -0.604 ± 0.8% | -0.552 ± 0.22% | -0.815 ± 0.31% | 8.06 ± 1.2% | 90.1 ± 3.4% | – | – | – | – | – | – | – | – | – | – |
| CC(=O)N1CCN(c2ccc(OCC3COC(Cn4ccnc4)(c4ccc(Cl)cc4Cl)O3)cc2)CC1 (configuration not stated) [Ketoconazole] | -3.06 ± 0.81% | -3.11 ± 0.33% | -2.22 ± 0.27% | -2.59 ± 0.32% | -2.26 ± 0.88% | 2.6 ± 2.2% | 1.63 ± 0.66% | 80.8 ± 7.1% | – | – | – | – | – | – | – | – | – | – |
| O=C(O)[C@H](O)[C@@H](O)C(=O)O [L-Tartaric acid] | -3.55 ± 0.17% | -2.52 ± 1.6% | -2.17 ± 1.1% | -2.97 ± 1.1% | -2.2 ± 0.7% | -0.465 ± 0.18% | 1.18 ± 0.94% | 6.93 ± 0.79% | – | – | – | – | – | – | – | – | – | – |
| N[C@@H](Cc1c[nH]c2ccccc12)C(=O)O [L-Tryptophan] | -1.94 ± 0.23% | -2.65 ± 0.14% | -1.1 ± 0.19% | -1.86 ± 0.22% | -2.03 ± 0.27% | -1.29 ± 0.26% | -1.37 ± 0.3% | -1.29 ± 0.24% | – | – | – | – | – | – | – | – | – | – |
| CCOC(=O)C(C)OC(=O)c1cc(Oc2ccc(C(F)(F)F)cc2Cl)ccc1[N+](=O)[O-] (configuration not stated) [Lactofen] | -1.17 ± 0.45% | -0.64 ± 0.62% | -0.974 ± 0.24% | -1.12 ± 0.48% | -0.601 ± 0.34% | -0.515 ± 0.76% | -0.447 ± 0.37% | 0.298 ± 0.45% | – | – | – | – | – | – | – | – | – | – |
| C#CC1(O)CCC2C3CCC4=CC(=O)CCC4C3CCC21CC (configuration not stated) [Levonorgestrel] | -1.38 ± 1.4% | -1.25 ± 1.1% | -1.67 ± 1.2% | -1.92 ± 0.3% | -1.95 ± 0.12% | -1.02 ± 0.035% | -0.294 ± 1.1% | 0.81 ± 0.17% | – | – | – | – | – | – | – | – | – | – |
| ClC1C(Cl)C(Cl)C(Cl)C(Cl)C1Cl (configuration not stated) [Lindane] | -0.796 ± 0.18% | -0.605 ± 0.45% | -0.762 ± 1% | -0.901 ± 0.75% | -0.128 ± 0.47% | -0.657 ± 0.1% | 0.201 ± 0.43% | 5.07 ± 0.72% | – | – | – | – | – | – | – | – | – | – |
| CON(C)C(=O)Nc1ccc(Cl)c(Cl)c1 [Linuron] | -1.04 ± 0.089% | -1.18 ± 0.7% | -1.18 ± 0.5% | -0.927 ± 0.94% | -1.44 ± 0.95% | -0.708 ± 0.44% | 0.755 ± 1% | 0.919 ± 1.2% | – | – | – | – | – | – | – | – | – | – |
| CCC(C)C(=O)OC1CC(C)C=C2C=CC(C)C(CCC3CC(O)CC(=O)O3)C21 (configuration not stated) [Lovastatin] | – | -2.24 ± 2.7% | – | -3.8 ± 0.94% | -3.98 ± 0.75% | -3.52 ± 0.1% | -3.4 ± 0.086% | 1.06 ± 0.76% | -0.879 ± 0.35% | -3.24 ± 1.1% | – | – | – | – | – | – | – | – |
| Cc1cc(Cl)ccc1OCC(=O)O [MCPA] | -0.121 ± 0.17% | -0.914 ± 0.53% | -0.511 ± 0.28% | -0.689 ± 0.68% | -0.578 ± 0.24% | -0.154 ± 0.47% | 0.865 ± 0.061% | 1.22 ± 0.86% | – | – | – | – | – | – | – | – | – | – |
| CCCCC(CC)COC(=O)c1ccccc1C(=O)O (configuration not stated) [MEHP] | – | – | – | – | – | – | – | – | – | – | -1.24 ± 1.4% | -1.27 ± 0.27% | -1.13 ± 1.5% | -1.47 ± 1.3% | -1.28 ± 0.83% | -0.944 ± 0.92% | -1.07 ± 0.41% | 0.594 ± 0.91% |
| NC(=O)c1nc(-c2cccc(-c3cc(F)ccc3OCC(F)(F)C(F)(F)F)c2)n[nH]1 [MK-274] | -1.29 ± 0.91% | -0.429 ± 0.81% | -0.661 ± 0.16% | -1.07 ± 0.22% | -0.753 ± 0.38% | -0.915 ± 0.94% | 0.166 ± 0.068% | 86.6 ± 1.7% | – | – | – | – | – | – | – | – | – | – |
| CCCCc1ccc2c(n1)C(c1ccc(OC)cc1CC(C)C(=O)O)C(C(=O)O)C2c1ccc2c(c1)OCO2 (configuration not stated) [MK-547] | -0.553 ± 0.95% | -1.23 ± 0.22% | -0.915 ± 0.25% | -1.66 ± 0.29% | -0.888 ± 0.3% | -0.832 ± 0.16% | -0.204 ± 0.43% | 0.0481 ± 0.055% | – | – | – | – | – | – | – | – | – | – |
| CCn1nc(Cc2ccccc2)cc1C1CCN(CC2CC(N(C)C(C(=O)O)C(C)C)CC2c2cccc(F)c2)CC1 (configuration not stated) [MK-578] | -1.06 ± 0.49% | -1.8 ± 0.42% | -1.85 ± 0.13% | -2.168 ± 0.0097% | -2.16 ± 0.039% | -1.47 ± 0.29% | -1.08 ± 0.3% | 9.55 ± 0.94% | – | – | – | – | – | – | – | – | – | – |
| COC1COCCC1NC1CCC(C(=O)N2CCc3ncc(C(F)(F)F)cc3C2)(C(C)C)C1 (configuration not stated) [MK-812] | 0.0558 ± 0.81% | -1.65 ± 0.31% | -1.72 ± 0.43% | -2.52 ± 1.1% | -1.87 ± 1% | -1.43 ± 0.51% | -1.59 ± 0.027% | -0.0412 ± 0.23% | – | – | – | – | – | – | – | – | – | – |
| Fc1ccccc1C(F)COC1CCC(Nc2[nH]cnc3nncc2-3)CC1 (configuration not stated) [MK-968] | -1.09 ± 1.7% | -1.55 ± 0.47% | -2.19 ± 0.36% | -2.2 ± 0.68% | -2.43 ± 0.47% | -2.42 ± 0.46% | 1.23 ± 0.027% | 10.8 ± 2.6% | – | – | – | – | – | – | – | – | – | – |
| CCOC(=O)CC(SP(=O)(OC)OC)C(=O)OCC (configuration not stated) [Malaoxon] | – | -1.49 ± 0.13% | – | -2.43 ± 0.17% | -2.14 ± 0.62% | -2.43 ± 0.25% | -1.77 ± 0.98% | -0.859 ± 0.23% | -0.0319 ± 0.49% | -2.33 ± 1.5% | – | – | – | – | – | – | – | – |
